Measured values from patent publication US12559750B2, “Methods and compositions for treatment of polycystic kidney disease” (Regulus Therapeutics Inc., priority 2021, dated 2026).

Tested on: AMPA-R
Experiment: [3H]AMPA radioligand binding assay on rat brain synaptic membranes;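 further: competition binding in which test compounds at rising concentrations displace [3H]AMPA from AMPA-R on rat brain synaptic membranes, with reduced bound radioligand as read-out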
Procedure: The activity of anti-miR-17 compounds was evaluated in a radioligand binding assay which measured the binding of the [^3H] AMPA ligand to the AMPA-R present on rat brain synaptic membranes, in the presence of increasing concentrations of anti-miR-17 compound, anti-miR-17 compounds with affinity for the AMPA-R will bind to and compete with the binding of the [^3H] AMPA ligand.
5.0 nM of the ligand [^3H] AMPA, 1.0 mM of the non-specific ligand L-Glutamic acid, and anti-miR compound at uM concentrations were incubated with synaptic membranes prepared from Wistar rat cerebral cortex for 90 minutes.
The compounds were tested in the radioligand binding assay described herein, to determine the ability of the anti-miR-17 compounds to and compete with the binding of the [3H] AMPA ligand.

Sequence | IC50 (Experiment #2) | % Inhibition @ 0.1 uM (Experiment #2, 0.1 uM) | % Inhibition @ 1 uM (Experiment #2, 1 uM) | % Inhibition @ 10 uM (Experiment #2, 10 uM) | % Inhibition @ 100 uM (Experiment #2, 100 uM) | also measured
AECETEGSTEAASGSCMAFCFUFUMUSCS (ACTGTAAGCACUUUC; S-cEt, 2'-MOE, 2'-F, 2'-OMe modifications; modified_base 3 OTHER; thymine; modified_base 5 OTHER; misc_feature 1..15 Synthetic: RG-NG-1018; modified_base 1..3 OTHER; 2'-O-methoxyethyl nucleoside; modified_base 4 OTHER; S-constrained ethyl nucleoside; modified_base 7..8 OTHER; modified_base 9 OTHER; 2'-O-methyl nucleoside; modified_base 10..12 OTHE) |  |  |  |  |  | IC50 (Experiment #3): > 100 µM; % Inhibition @ 0.1 uM (Experiment #3, 0.1 uM): 3%; % Inhibition @ 1 uM (Experiment #3, 1 uM): 8.1%; % Inhibition @ 10 uM (Experiment #3, 10 uM): 1%; % Inhibition @ 100 uM (Experiment #3, 100 uM): 12.3%
AEGECMAFCFUFUMTEGE [RG-NG-1009] | > 100 µM | −11.8% | 2.7% | 13% | 32.6% | 
AEGECMAFCFUFUMUSGS [RG-NG-1010] | 3.44 µM | 0.7% | 31.3% | 70.1% | 86.4% | 
AFGSCMAFCFUFUMUSGE [RG-NG-1023] |  |  |  |  |  | IC50 (Experiment #3): 3.12 µM; % Inhibition @ 0.1 uM (Experiment #3, 0.1 uM): 3.1%; % Inhibition @ 1 uM (Experiment #3, 1 uM): 25.6%; % Inhibition @ 10 uM (Experiment #3, 10 uM): 75.2%; % Inhibition @ 100 uM (Experiment #3, 100 uM): 95.3%
ALGLCLALCLTLTLTLGL [RG-NG-1006] |  |  |  |  |  | IC50 (Experiment #1): 2.77 µM; % Inhibition @ 0.1 uM (Experiment #1, 0.1 uM): 6.7%; % Inhibition @ 1 uM (Experiment #1, 1 uM): 35.3%; % Inhibition @ 10 uM (Experiment #1, 10 uM): 68.9%; % Inhibition @ 100 uM (Experiment #1, 100 uM): 93.9%
ALGLCMAFCFUFUMUSGS [RG-NG-1011] | 2.56 µM | −2.2% | 30.6% | 78.5% | 94% | 
AMAMGLCLALCLUMTLUCM [RG-NG-1030] | > 100 µM | 2.9% | 6.5% | 15% | 1.9% | 
AMAMGLCLALCLUMTLUM [RG-NG-1031] | > 100 µM | −4.3% | 1% | 2.7% | 16.7% | 
AMGLCLALCLUMTLUCM [RG-NG-1029] | > 100 µM | 0.9% | 15.9% | 7% | 38.4% | 
ASASGSCMAFCFUFUMUS [RG-NG-1013] | > 100 µM | −3.8% | −5.6% | 3.7% | 37.2% | 
ASCSTGSUSAASGSCMAFCFUFUMUSCS (ACTGUAAGCACUUUC; cEt at 1, 2, 4, 5, 7, 8, 14, 15, 2'-O-methyl at 9, 13, 2'-fluoro at 10, 11, 12, other sugars and backbone not given here) [RG-NG-1019] |  |  |  |  |  | IC50 (Experiment #3): > 100 µM; % Inhibition @ 0.1 uM (Experiment #3, 0.1 uM): 12.9%; % Inhibition @ 1 uM (Experiment #3, 1 uM): 17.2%; % Inhibition @ 10 uM (Experiment #3, 10 uM): 15.6%; % Inhibition @ 100 uM (Experiment #3, 100 uM): 21%
ASGECMAFCFUFUMTEGS [RG-NG-1008] | 56.6 µM | −22.4% | 13.6% | 22.1% | 59.6% | 
ASGLCMAFCFUFUMTLGS [RG-NG-1012] | 2.56 µM | 9.9% | 38.5% | 69% | 88.3% | 
ASGSCFAFCFUFUFUSGS [RG-NG-1007] | 1.69 µM | 3.1% | 39.7% | 83.2% | 94.3% | 
ASGSCMAFCFUFUMTEGE [RG-NG-1024] |  |  |  |  |  | IC50 (Experiment #3): > 100 µM; % Inhibition @ 0.1 uM (Experiment #3, 0.1 uM): −17%; % Inhibition @ 1 uM (Experiment #3, 1 uM): −4.7%; % Inhibition @ 10 uM (Experiment #3, 10 uM): 6.5%; % Inhibition @ 100 uM (Experiment #3, 100 uM): 35.2%
ASGSCMAFCFUFUMUS [RG-NG-1014] | > 100 µM | 14.9% | −5.5% | 8.6% | 20.4% | 
ASGSCMAFCFUFUMUSAM [RG-NG-1038] |  |  |  |  |  | IC50 (Table 8): 8.23 µM; % Inhibition @ Concentration 100 uM (Table 8 (3′-terminal nucleobase/sugar variants), 100 uM): 81.3%; % Inhibition @ Concentration 0.1 uM (Table 8, 0.1 uM): 17.9%; % Inhibition @ Concentration 1 uM (Table 8, 1 uM): 25.4%; % Inhibition @ Concentration 10 uM (Table 8, 10 uM): 47.4%
